Laboratory results: US12258327B2, “5-membered heteroaryl-containing aminopyridine compounds as EGFR inhibitors” (YUHAN CORPORATION, priority 2021, dated 2025)
Read-outs that look alike come from different tables or passages of the source.

Columns and labels:
[1] = biological target: EGFR del19/T790M/C797S (Homo sapiens, UniProt P00533, C797S/DEL746-750/T790M); experiment: Biochemical EGFR kinase assay (Lance Ultra TR-FRET), triple mutant del19/T790M/C797S
How it was run: (§1)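 In this biochemical assay, phosphorylation after a one-hour room-temperature reaction was detected with europium-labelled anti-phosphopeptide antibody at 2 nM final concentration.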

[2] = biological target: EGFR wildtype (WT) (Homo sapiens, UniProt P00533); experiment: Biochemical EGFR kinase assay (Lance Ultra TR-FRET), wildtype
How it was run: as §1

[3] = biological target: EGFR del19/C797S (Homo sapiens, UniProt P00533, C797S/DEL746-750); experiment: Biochemical EGFR kinase assay (Lance Ultra TR-FRET), double mutant del19/C797S
How it was run: as §1

[4] = biological target: EGFR L858R/C797S (Homo sapiens, UniProt P00533, C797S/L858R); experiment: Biochemical EGFR kinase assay (Lance Ultra TR-FRET), double mutant L858R/C797S
How it was run: as §1

[5] = biological target: EGFR L858R/T790M/C797S (Homo sapiens, UniProt P00533, C797S/L858R/T790M); experiment: Biochemical EGFR kinase assay (Lance Ultra TR-FRET), triple mutant L858R/T790M/C797S
How it was run: as §1

[6] = IC50 del19/T790M/C797S (nM) 100 μM ATP, 100 μM ATP
[7] = IC50 WT (nM) 100 μM ATP, 100 μM ATP
[8] = IC50 del19/C797S (nM) 100 μM ATP, 100 μM ATP
[9] = IC50 L858R/C797S (nM) 100 μM ATP, 100 μM ATP
[10] = IC50 L858R/T790M/C797S (nM) 100 μM ATP, 100 μM ATP
[11] = Km ATP, read-out: IC50 del19/T790M/C797S (nM) Km ATP
[12] = Km ATP, read-out: IC50 WT (nM) Km ATP
[13] = Km ATP, read-out: IC50 del19/C797S (nM) Km ATP
[14] = Km ATP, read-out: IC50 L858R/C797S (nM) Km ATP
[15] = Km ATP, read-out: IC50 L858R/T790M/C797S (nM) Km ATP

Chain of EGFR wildtype (WT) (P00533 25-1210): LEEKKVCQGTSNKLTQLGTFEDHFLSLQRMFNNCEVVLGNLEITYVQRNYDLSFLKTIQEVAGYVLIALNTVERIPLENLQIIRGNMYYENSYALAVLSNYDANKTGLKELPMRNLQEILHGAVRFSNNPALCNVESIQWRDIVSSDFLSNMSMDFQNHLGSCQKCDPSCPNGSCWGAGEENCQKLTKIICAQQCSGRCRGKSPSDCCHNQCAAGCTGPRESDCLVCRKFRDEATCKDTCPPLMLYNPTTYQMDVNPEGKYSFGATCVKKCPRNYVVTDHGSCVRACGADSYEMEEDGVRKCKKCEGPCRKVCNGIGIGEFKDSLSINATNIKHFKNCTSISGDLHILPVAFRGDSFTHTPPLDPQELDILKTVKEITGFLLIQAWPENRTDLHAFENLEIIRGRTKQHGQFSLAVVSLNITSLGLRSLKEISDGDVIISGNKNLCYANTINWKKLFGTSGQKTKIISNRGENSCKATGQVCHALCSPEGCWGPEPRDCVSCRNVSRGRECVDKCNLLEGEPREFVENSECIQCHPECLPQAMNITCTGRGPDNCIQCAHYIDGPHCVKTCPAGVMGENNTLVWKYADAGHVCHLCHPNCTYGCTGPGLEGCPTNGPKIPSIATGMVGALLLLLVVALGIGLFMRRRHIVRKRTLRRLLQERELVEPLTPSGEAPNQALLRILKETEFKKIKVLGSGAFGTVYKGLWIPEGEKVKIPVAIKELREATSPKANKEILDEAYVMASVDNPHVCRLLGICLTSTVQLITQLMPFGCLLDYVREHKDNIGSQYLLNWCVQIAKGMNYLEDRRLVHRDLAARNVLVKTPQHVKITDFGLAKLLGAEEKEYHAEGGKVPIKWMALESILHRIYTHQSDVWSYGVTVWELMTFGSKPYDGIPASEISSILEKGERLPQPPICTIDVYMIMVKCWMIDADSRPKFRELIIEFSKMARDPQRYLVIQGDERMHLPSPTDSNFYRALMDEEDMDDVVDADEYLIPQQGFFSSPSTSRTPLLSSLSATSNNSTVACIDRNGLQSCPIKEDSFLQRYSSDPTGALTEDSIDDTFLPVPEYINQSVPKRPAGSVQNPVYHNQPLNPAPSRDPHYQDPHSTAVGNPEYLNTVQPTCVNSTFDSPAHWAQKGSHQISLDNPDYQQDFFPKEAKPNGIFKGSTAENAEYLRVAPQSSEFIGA
Chain of EGFR L858R/T790M/C797S (P00533 25-1210 T790M/C797S/L858R): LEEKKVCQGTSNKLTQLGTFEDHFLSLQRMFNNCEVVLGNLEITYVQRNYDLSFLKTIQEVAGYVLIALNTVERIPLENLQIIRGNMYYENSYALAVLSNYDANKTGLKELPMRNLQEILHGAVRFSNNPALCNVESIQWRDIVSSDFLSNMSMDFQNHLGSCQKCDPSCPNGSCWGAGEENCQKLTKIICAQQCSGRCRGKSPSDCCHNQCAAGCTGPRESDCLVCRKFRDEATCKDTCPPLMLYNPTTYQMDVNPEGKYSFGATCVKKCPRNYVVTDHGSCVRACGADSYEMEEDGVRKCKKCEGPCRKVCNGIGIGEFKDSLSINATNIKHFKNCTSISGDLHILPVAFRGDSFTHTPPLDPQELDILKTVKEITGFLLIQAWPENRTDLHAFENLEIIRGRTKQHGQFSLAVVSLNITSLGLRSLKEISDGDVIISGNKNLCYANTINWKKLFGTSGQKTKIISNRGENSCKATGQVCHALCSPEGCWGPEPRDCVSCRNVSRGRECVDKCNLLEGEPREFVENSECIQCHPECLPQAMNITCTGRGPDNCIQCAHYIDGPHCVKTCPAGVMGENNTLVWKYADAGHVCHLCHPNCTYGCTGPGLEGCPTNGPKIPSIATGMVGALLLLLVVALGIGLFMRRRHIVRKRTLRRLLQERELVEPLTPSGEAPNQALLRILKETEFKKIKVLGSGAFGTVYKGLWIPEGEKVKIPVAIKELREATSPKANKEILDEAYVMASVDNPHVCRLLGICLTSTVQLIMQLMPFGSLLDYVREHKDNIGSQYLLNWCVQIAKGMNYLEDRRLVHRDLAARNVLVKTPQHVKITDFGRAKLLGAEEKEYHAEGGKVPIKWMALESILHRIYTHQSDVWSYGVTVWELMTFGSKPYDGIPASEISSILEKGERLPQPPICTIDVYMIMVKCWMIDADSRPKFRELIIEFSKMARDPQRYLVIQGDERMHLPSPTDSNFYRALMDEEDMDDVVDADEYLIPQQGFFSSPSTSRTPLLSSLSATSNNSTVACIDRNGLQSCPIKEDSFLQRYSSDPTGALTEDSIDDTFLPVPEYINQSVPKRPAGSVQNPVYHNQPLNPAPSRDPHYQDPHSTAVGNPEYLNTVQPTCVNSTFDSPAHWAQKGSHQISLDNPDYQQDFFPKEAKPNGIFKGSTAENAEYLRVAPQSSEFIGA
Chain of EGFR del19/C797S (P00533 with tags, fused parts or gaps DEL746-750/C797S): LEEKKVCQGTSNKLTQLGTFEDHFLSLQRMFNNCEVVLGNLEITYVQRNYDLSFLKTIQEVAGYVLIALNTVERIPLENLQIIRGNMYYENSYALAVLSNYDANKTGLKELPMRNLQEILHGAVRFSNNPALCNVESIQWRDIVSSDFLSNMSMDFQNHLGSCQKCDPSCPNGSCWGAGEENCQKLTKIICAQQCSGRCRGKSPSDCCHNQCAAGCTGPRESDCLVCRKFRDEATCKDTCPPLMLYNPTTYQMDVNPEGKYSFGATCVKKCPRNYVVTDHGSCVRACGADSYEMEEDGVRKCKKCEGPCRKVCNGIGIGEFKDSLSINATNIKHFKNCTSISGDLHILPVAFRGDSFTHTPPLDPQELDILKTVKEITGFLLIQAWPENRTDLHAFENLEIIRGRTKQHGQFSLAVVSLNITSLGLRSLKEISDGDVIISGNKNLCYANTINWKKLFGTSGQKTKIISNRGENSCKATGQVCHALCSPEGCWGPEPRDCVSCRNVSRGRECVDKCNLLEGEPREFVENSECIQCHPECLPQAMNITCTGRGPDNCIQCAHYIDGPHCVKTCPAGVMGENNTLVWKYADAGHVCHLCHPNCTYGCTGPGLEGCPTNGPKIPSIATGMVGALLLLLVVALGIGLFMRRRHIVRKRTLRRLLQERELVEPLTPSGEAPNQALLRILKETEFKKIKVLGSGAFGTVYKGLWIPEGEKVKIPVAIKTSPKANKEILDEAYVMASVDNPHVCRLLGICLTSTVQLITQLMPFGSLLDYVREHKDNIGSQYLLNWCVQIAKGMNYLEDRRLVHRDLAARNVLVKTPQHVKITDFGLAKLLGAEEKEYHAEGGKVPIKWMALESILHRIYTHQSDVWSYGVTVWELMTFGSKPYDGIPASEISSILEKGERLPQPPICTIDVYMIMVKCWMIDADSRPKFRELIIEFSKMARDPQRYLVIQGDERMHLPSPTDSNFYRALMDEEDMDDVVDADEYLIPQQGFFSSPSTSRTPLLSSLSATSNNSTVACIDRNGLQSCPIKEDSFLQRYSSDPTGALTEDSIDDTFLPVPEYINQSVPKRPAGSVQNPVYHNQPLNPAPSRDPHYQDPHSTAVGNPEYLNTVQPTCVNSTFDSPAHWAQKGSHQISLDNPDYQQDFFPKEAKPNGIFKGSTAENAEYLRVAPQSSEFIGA
Chain of EGFR L858R/C797S (P00533 25-1210 C797S/L858R): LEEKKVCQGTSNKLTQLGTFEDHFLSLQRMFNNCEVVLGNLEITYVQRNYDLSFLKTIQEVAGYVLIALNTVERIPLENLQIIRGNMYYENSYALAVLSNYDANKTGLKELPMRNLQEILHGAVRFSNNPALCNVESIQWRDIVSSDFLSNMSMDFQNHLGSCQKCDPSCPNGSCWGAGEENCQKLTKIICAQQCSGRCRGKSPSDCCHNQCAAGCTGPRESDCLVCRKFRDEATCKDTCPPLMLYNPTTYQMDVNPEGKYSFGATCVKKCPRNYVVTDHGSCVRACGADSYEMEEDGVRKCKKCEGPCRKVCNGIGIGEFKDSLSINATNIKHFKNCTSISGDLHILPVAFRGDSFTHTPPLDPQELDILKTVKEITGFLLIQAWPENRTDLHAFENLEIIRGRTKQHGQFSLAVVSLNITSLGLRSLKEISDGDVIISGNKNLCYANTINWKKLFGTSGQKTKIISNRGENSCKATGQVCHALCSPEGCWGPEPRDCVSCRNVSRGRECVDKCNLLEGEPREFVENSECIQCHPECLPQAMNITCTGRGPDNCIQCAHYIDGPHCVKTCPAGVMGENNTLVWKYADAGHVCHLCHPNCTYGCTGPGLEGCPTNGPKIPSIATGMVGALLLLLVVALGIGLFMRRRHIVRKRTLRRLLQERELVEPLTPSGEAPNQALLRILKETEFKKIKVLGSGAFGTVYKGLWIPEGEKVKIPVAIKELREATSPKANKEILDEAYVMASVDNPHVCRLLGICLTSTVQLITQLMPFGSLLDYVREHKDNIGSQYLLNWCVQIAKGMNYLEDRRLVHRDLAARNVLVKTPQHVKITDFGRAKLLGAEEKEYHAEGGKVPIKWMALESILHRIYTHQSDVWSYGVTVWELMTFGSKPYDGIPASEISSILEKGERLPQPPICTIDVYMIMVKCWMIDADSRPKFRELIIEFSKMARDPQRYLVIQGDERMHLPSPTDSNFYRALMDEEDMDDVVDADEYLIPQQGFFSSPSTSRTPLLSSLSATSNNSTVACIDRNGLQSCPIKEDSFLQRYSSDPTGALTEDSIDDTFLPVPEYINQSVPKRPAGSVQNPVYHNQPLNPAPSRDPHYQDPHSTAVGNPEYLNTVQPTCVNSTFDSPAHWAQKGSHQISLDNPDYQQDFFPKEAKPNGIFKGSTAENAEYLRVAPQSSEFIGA

Structure (SMILES) | IC50 [1, 6] [nM] | IC50 [2, 7] [nM] | IC50 [3, 8] [nM] | IC50 [4, 9] [nM] | IC50 [5, 10] [nM] | IC50 [1, 11] [nM] | IC50 [2, 12] [nM] | IC50 [3, 13] [nM] | IC50 [4, 14] [nM] | IC50 [5, 15] [nM] | further results
C[C@]1(O)CC[C@@H](Nc2cc(Nc3ccnc(-c4cnn(S(=O)(=O)C5CC5)c4)c3)ncc2-c2ccn(C(F)F)n2)CC1 [Example 354, (1s,4s)-4-((2-((2-(1-(Cyclopropylsulfonyl)-1H-pyrazol-4-yl)pyridin-4-yl)amino)-5-(1-(difluoromethyl)-1H-pyrazol-3-yl)pyridin-4-yl)amino)-1-methylcyclohexan-1-ol] |  |  |  |  |  |  |  |  |  |  | IC50 ([1]; IC50 del19/T790M/C797S, 100 μM ATP): 2 nM; IC50 ([2]; IC50 WT, 100 μM ATP): > 10000 nM; IC50 ([3]; IC50 del19/C797S, 100 μM ATP): 135 nM; IC50 ([4]; IC50 L858R/C797S, 100 μM ATP): 2540 nM; IC50 ([5]; IC50 L858R/T790M/C797S, 100 μM ATP): 13.1 nM
Cn1ccc(-c2cnc(Nc3ccnc(-c4cnn(S(=O)(=O)C5CC5)c4)n3)cc2NC[C@H]2C[C@H](CO)C2)n1 [Example 223, ((1r,3r)-3-(((2-((2-(1-(Cyclopropylsulfonyl)-1H-pyrazol-4-yl)pyrimidin-4-yl)amino)-5-(1-methyl-1H-pyrazol-3-yl)pyridin-4-yl)amino)methyl)cyclobutyl)methanol] | 0.2 | 3020 | 0.6 | 5.9 | 0.2 | 0.2 | 3.2 | 0.3 | 0.7 | 0.1 | 
C[C@]1(O)CC[C@@H](Nc2nc(Nc3ccnc(-c4cnn(S(=O)(=O)C5CC5)c4)c3)ncc2-c2ccn(CCC(F)(F)F)n2)CC1 [Example 359, (1s,4s)-4-((2-((2-(1-(Cyclopropylsulfonyl)-1H-pyrazol-4-yl)pyridin-4-yl)amino)-5-(1-(3,3,3-trifluoropropyl)-1H-pyrazol-3-yl)pyrimidin-4-yl)amino)-1-methylcyclohexan-1-ol] |  |  |  |  |  |  |  |  |  |  | IC50 ([1]; Km ATP, read-out: IC50 del19/T790M/C797S, Km ATP): 0.6 nM; IC50 ([2]; Km ATP, read-out: IC50 WT, Km ATP): 208 nM; IC50 ([3]; Km ATP, read-out: IC50 del19/C797S, Km ATP): 15.4 nM; IC50 ([4]; Km ATP, read-out: IC50 L858R/C797S, Km ATP): 18.3 nM; IC50 ([5]; Km ATP, read-out: IC50 L858R/T790M/C797S, Km ATP): 1.6 nM
Cc1cc(-c2cnc(Nc3ccnc(-c4cnn(S(=O)(=O)C5CC5)c4)n3)cc2N[C@H]2CC[C@@H](CO)CC2)nn1C [Example 280, ((1s,4s)-4-((2-((2-(1-(Cyclopropylsulfonyl)-1H-pyrazol-4-yl)pyrimidin-4-yl)amino)-5-(1,5-dimethyl-1H-pyrazol-3-yl)pyridin-4-yl)amino)cyclohexyl)methanol] | 1 | 51.9 | 0.7 | 3.8 | 0.7 | 0.8 | 0.4 | 0.2 | 0.3 | 1 | 
CS(=O)(=O)Cn1cc(-c2nccc(Nc3cc(N[C@H]4CC[C@@](C)(O)CC4)c(-c4ccn(C(F)F)n4)cn3)n2)cn1 [Example 150, (1s,4s)-4-((5-(1-(Difluoromethyl)-1H-pyrazol-3-yl)-2-((2-(1-((methylsulfonyl)methyl)-1H-pyrazol-4-yl)pyrimidin-4-yl)amino)pyridin-4-yl)amino)-1-methylcyclohexan-1-ol] |  |  |  |  |  | 1.6 | 104 | 21.2 | 14.7 | 1.2 | 
CC(C)(O)[C@H]1CC[C@@H](Nc2cc(Nc3ccnc(-c4cnn(CC(F)F)c4)n3)ncc2-c2ccn(C(F)F)n2)CC1 [Example 148, 2-((1s,4s)-4-((2-((2-(1-(2,2-Difluoroethyl)-1H-pyrazol-4-yl)pyrimidin-4-yl)amino)-5-(1-(difluoromethyl)-1H-pyrazol-3-yl)pyridin-4-yl)amino)cyclohexyl)propan-2-ol] |  |  |  |  |  | 1.4 | 128 | 75.5 | 27 | 1.7 | 
CC(C)Nc1cc(Nc2ccnc(-c3cnn(S(=O)(=O)C4CC4)c3)n2)ncc1-c1ccn(CCC(F)(F)F)n1 [Example 304, N^2-(2-(1-(Cyclopropylsulfonyl)-1H-pyrazol-4-yl)pyrimidin-4-yl)-N^4-isopropyl-5-(1-(3,3,3-trifluoropropyl)-1H-pyrazol-3-yl)pyridine-2,4-diamine] |  |  |  |  |  | 1.1 | 355 | 340 | 0.8 | 1.8 | 
O=S(=O)(C1CC1)n1cc(-c2nccc(Nc3cc(N[C@H]4CC[C@@H](O)CC4)c(-c4csc(C(F)(F)F)n4)cn3)n2)cn1 [Example 81, (1s,4s)-4-((2-((2-(1-(Cyclopropylsulfonyl)-1H-pyrazol-4-yl)pyrimidin-4-yl)amino)-5-(2-(trifluoromethyl)thiazol-4-yl)pyridin-4-yl)amino)cyclohexan-1-ol] | 1.1 | 1240 | 3.4 | 4.8 | 1.2 |  |  |  |  |  | 

Continued, in another order:

IC50 [1, 6] [nM] | IC50 [2, 7] [nM] | IC50 [3, 8] [nM] | IC50 [4, 9] [nM] | IC50 [5, 10] [nM] | IC50 [1, 11] [nM] | IC50 [2, 12] [nM] | IC50 [3, 13] [nM] | IC50 [4, 14] [nM] | IC50 [5, 15] [nM] | Structure (SMILES) | further results
5.5 | > 10000 | 18.8 | 21.9 | 5.7 |  |  |  |  |  | CC(C)(O)[C@H]1CC[C@@H](Nc2cc(Nc3ccnc(-c4cnn(S(=O)(=O)C5CC5)c4)n3)ncc2-c2ccn(C(F)F)n2)CC1 [Example 8, 2-((1s,4s)-4-((2-((2-(1-(Cyclopropylsulfonyl)-1H-pyrazol-4-yl)pyrimidin-4-yl)amino)-5-(1-(difluoromethyl)-1H-pyrazol-3-yl)pyridin-4-yl)amino)cyclohexyl)propan-2-ol] | 
 |  |  |  |  | 11.9 | 434 | 70.2 | 32.5 | 8.6 | O=S(=O)(C1CC1)n1cc(-c2nccc(Nc3cc(NC4CCC(F)(F)CC4)c(-c4ccn(C(F)F)n4)cn3)n2)cn1 [Example 215, N^2-(2-(1-(Cyclopropylsulfonyl)-1H-pyrazol-4-yl)pyrimidin-4-yl)-N^4-(4,4-difluorocyclohexyl)-5-(1-(difluoromethyl)-1H-pyrazol-3-yl)pyridine-2,4-diamine] | 
 |  |  |  |  | 10.4 | 466 | 1060 | 143 | 4.6 | C[C@]1(O)CC[C@@H](Nc2cc(Nc3ccnc(-c4cnn(S(=O)(=O)N5CCCC5)c4)n3)ncc2-c2ccn(C(F)F)n2)CC1 [Example 323, (1s,4s)-4-((5-(1-(Difluoromethyl)-1H-pyrazol-3-yl)-2-((2-(1-(pyrrolidin-1-ylsulfonyl)-1H-pyrazol-4-yl)pyrimidin-4-yl)amino)pyridin-4-yl)amino)-1-methylcyclohexan-1-ol] | 
 |  |  |  |  | 2.5 | 34.5 | 24.7 | 23.7 | 1.9 | O=S(=O)(C1CC1)n1cc(-c2nccc(Nc3cc(NC4CCC(O)(C5CC5)CC4)c(-c4ccn(C(F)F)n4)cn3)n2)cn1 (centres unmarked) [Example 110, 1-Cyclopropyl-4-((2-((2-(1-(cyclopropylsulfonyl)-1H-pyrazol-4-yl)pyrimidin-4-yl)amino)-5-(1-(difluoromethyl)-1H-pyrazol-3-yl)pyridin-4-yl)amino)cyclohexan-1-ol] | 
0.5 | 612 | 1.7 | 4.8 | 0.8 |  |  |  |  |  | CN(C)CCNC1CCC(Nc2cc(Nc3ccnc(-c4cnn(S(=O)(=O)C5CC5)c4)n3)ncc2-c2ccn(C(F)F)n2)CC1 (centres unmarked) [Example 99, N^2-(2-(1-(cyclopropylsulfonyl)-1H-pyrazol-4-yl)pyrimidin-4-yl)-5-(1-(difluoromethyl)-1H-pyrazol-3-yl)-N4-(4-((2-(dimethylamino)ethyl)amino)cyclohexyl)pyridine-2,4-diamine] | 
0.6 | 7510 | 4.9 | 14.2 | 0.9 |  |  |  |  |  | O=S(=O)(C1CC1)n1cc(-c2nccc(Nc3cc(N[C@H]4CC[C@@H](O)C4)c(-c4ccn(C(F)F)n4)cn3)n2)cn1 [Example 14, (1R,3S)-3-((2-((2-(1-(Cyclopropylsulfonyl)-1H-pyrazol-4-yl)pyrimidin-4-yl)amino)-5-(1-(difluoromethyl)-1H-pyrazol-3-yl)pyridin-4-yl)amino)cyclopentan-1-ol] | 
